The record followed here is the supplement of paper PMC11208160.
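Further: IS621 bridge recombinase in Escherichia coli cells against a fixed T5 target plasmid.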

The data set is described as follows: recombinant UMI read abundance after kanamycin selection (control-corrected) (log10(CPM+1)); higher = more efficient recombination; extreme values may be limits of the assay; sequences stand for … in AGTGCAGAGAAAATCGGCCAGTTTTCTCTGCCTGCAGTCCGCATGCCGTGGGACCCCTTGGGTTCTAACCTGTTGCCTAGATTTATGCAGCGGACTGCCTTTCTCCCAAAGTGATAAACCGG…AGGTTGGTTTCACT; site = the 11-nt donor. A digest of the protocol:
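Counts of recombinant UMIs were reported as log10(CPM+1). Before that, they were converted to CPM, averaged over replicates and scaled using control-derived factors. They came from PCR across the donor–target junction after Escherichia coli carrying the pair library and target plasmid was plated on IPTG (0.07 mM) plus kanamycin, or unselected, in two replicates each.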
In the case of “CGATCATCATGGACCGGTTTTCCCGGTAATCCGTATTTGCT (site CGTACATCTAG)”, the “recombinant UMI read abundance (log10)” value was found to be 1.61.

On to “CGATCATCATGGACCGGTTTTCCCGGTAATCCGTATTTGCT (site CGTTCACCTAG)”, for which the “recombinant UMI read abundance (log10)” value is 0.

Consider “CGATCATCATGGACCGGTTTTCCCGGTAATCCGTATTTGCT (site CGTTCATCTAG)”, for which the “recombinant UMI read abundance (log10)” value is 1.53.

Turning to “CGATCATCATGGACCGGTTTTCCCGGTAATCCGTATTTGCT (site CGTTCATCTAT)”, the “recombinant UMI read abundance (log10)” value amounted to 0.

With “CGATCATCATGGACCGGTTTTCCCGGTAATCCGTATTTGCT (site CGTTCATCTGG)”, the “recombinant UMI read abundance (log10)” value was 0.

As for “CGATCATCATGGACCGGTTTTCCCGGTAATCCGTATTTGCT (site CGTTCGTCTAG)”, the “recombinant UMI read abundance (log10)” value was 0.0117.

In the case of “CGATCATCATGGACCGGTTTTCCCGGTAATCCGTATTTGCT (site CGTTGATCTAG)”, the “recombinant UMI read abundance (log10)” value was 0.

For “CGATCATCATGGACCGGTTTTCCCGGTAATCCGTATTTGCT (site CTACCATCTAG)”, the “recombinant UMI read abundance (log10)” value was 1.69.

Regarding “CGATCATCATGGACCGGTTTTCCCGGTAATCCGTATTTGCT (site CTATAATCTAG)”, the “recombinant UMI read abundance (log10)” value turned out to be 1.08.

Turning to “CGATCATCATGGACCGGTTTTCCCGGTAATCCGTATTTGCT (site CTATCAACTAG)”, the “recombinant UMI read abundance (log10)” value is 0.

For the sequence “CGATCATCATGGACCGGTTTTCCCGGTAATCCGTATTTGCT (site CTATCATCTAC)”, the “recombinant UMI read abundance (log10)” value stood at 0.00862.

On to “CGATCATCATGGACCGGTTTTCCCGGTAATCCGTATTTGCT (site CTATCATCTAG)”, for which the “recombinant UMI read abundance (log10)” value is 1.22.

As to “CGATCATCATGGACCGGTTTTCCCGGTAATCCGTATTTGCT (site CTATCATCTCG)”, the “recombinant UMI read abundance (log10)” value was found to be 0.0222.

With “CGATCATCATGGACCGGTTTTCCCGGTAATCCGTATTTGCT (site CTATCCTCTAG)”, the “recombinant UMI read abundance (log10)” value was determined as 0.

Consider “CGATCATCATGGACCGGTTTTCCCGGTAATCCGTATTTGCT (site CTCTCATCTAG)”, for which the “recombinant UMI read abundance (log10)” value turned out to be 0.961.

“CGATCATCATGGACCGGTTTTCCCGGTAATCCGTATTTGCT (site GAATCATCTAG)”: the “recombinant UMI read abundance (log10)” value stood at 0.

For “CGATCATCATGGACCGGTTTTCCCGGTAATCCGTATTTGCT (site GGAACATCTAG)”, the “recombinant UMI read abundance (log10)” value came to 0.00516.

Take “CGATCATCATGGACCGGTTTTCCCGGTAATCCGTATTTGCT (site GGATCACCTAG)”: the “recombinant UMI read abundance (log10)” value was 0.00443.

On to “CGATCATCATGGACCGGTTTTCCCGGTAATCCGTATTTGCT (site GGATCATCTAG)”, for which the “recombinant UMI read abundance (log10)” value was 0.606.

Consider “CGATCATCATGGACCGGTTTTCCCGGTAATCCGTATTTGCT (site GGATCATCTAT)”, for which the “recombinant UMI read abundance (log10)” value amounted to 0.0067.

Take “CGATCATCATGGACCGGTTTTCCCGGTAATCCGTATTTGCT (site GGATCATCTGG)”: the “recombinant UMI read abundance (log10)” value was 0.

Regarding “CGATCATCATGGACCGGTTTTCCCGGTAATCCGTATTTGCT (site GGATCGTCTAG)”, the “recombinant UMI read abundance (log10)” value is 0.00614.

“CGATCATCATGGACCGGTTTTCCCGGTAATCCGTATTTGCT (site GGATGATCTAG)”: the “recombinant UMI read abundance (log10)” value was 0.

For the sequence “CGATCATCATGGACCGGTTTTCCCGGTAATCCGTATTTGCT (site GGTTCATCTAG)”, the “recombinant UMI read abundance (log10)” value was found to be 0.

For the sequence “CGATCATCATGGACCGGTTTTCCCGGTAATCCGTATTTGCT (site TGACCATCTAG)”, the “recombinant UMI read abundance (log10)” value is 1.21.

As for “CGATCATCATGGACCGGTTTTCCCGGTAATCCGTATTTGCT (site TGATAATCTAG)”, the “recombinant UMI read abundance (log10)” value was 0.

For the sequence “CGATCATCATGGACCGGTTTTCCCGGTAATCCGTATTTGCT (site TGATCAACTAG)”, the “recombinant UMI read abundance (log10)” value was 0.

With “CGATCATCATGGACCGGTTTTCCCGGTAATCCGTATTTGCT (site TGATCATCTAC)”, the “recombinant UMI read abundance (log10)” value came to 0.00378.

Regarding “CGATCATCATGGACCGGTTTTCCCGGTAATCCGTATTTGCT (site TGATCATCTAG)”, the “recombinant UMI read abundance (log10)” value was found to be 0.864.

Regarding “CGATCATCATGGACCGGTTTTCCCGGTAATCCGTATTTGCT (site TGATCATCTCG)”, the “recombinant UMI read abundance (log10)” value was 0.00793.

With “CGATCATCATGGACCGGTTTTCCCGGTAATCCGTATTTGCT (site TGATCCTCTAG)”, the “recombinant UMI read abundance (log10)” value was 0.

“CGATCATCATGGACCGGTTTTCCCGGTAATCCGTATTTGCT (site TGCTCATCTAG)”: the “recombinant UMI read abundance (log10)” value turned out to be 0.

On to “CGATCATCATGGACCGGTTTTCCCGGTAATCCGTATTTGCT (site TTATCATCTAG)”, for which the “recombinant UMI read abundance (log10)” value was 1.88.

Regarding “CGATCATCATGGACCGGTTTTCCCGGTAATCCGTATTTGTA (site CGATCATCTAG)”, the “recombinant UMI read abundance (log10)” value stood at 0.

Consider “CGATCATCATGGACCGGTTTTCCCGGTAATCCGTATTTGTA (site CGATCATCTTA)”, for which the “recombinant UMI read abundance (log10)” value is 2.57.

With “CGATCATCATGGACCGGTTTTCCCGGTAATCCGTATTTGTT (site CGATCATCTAA)”, the “recombinant UMI read abundance (log10)” value amounted to 1.4.

Consider “CGATCATCATGGACCGGTTTTCCCGGTAATCCGTATTTGTT (site CGATCATCTAC)”, for which the “recombinant UMI read abundance (log10)” value is 0.

As for “CGATCATCATGGACCGGTTTTCCCGGTAATCCGTATTTGTT (site CGATCATCTAG)”, the “recombinant UMI read abundance (log10)” value is 0.

On to “CGATCATCATGGACCGGTTTTCCCGGTAATCCGTATTTGTT (site CGATCATCTAT)”, for which the “recombinant UMI read abundance (log10)” value was 0.00529.

Take “CGATCCACATGGACCGGTTTTCCCGGTAATCCGTATTTGCT (site CGATCATCTAG)”: the “recombinant UMI read abundance (log10)” value came out at 0.

For the sequence “CGATCCACATGGACCGGTTTTCCCGGTAATCCGTATTTGCT (site CGATCCACTAG)”, the “recombinant UMI read abundance (log10)” value was 2.75.

In the case of “CGATCCACATGGACCGGTTTTCCCGGTAATCCGTATTTGTT (site CGATCAACTAA)”, the “recombinant UMI read abundance (log10)” value is 0.00541.

As to “CGATCCACATGGACCGGTTTTCCCGGTAATCCGTATTTGTT (site CGATCCACTAA)”, the “recombinant UMI read abundance (log10)” value is 2.11.

With “CGATCCACATGGACCGGTTTTCCCGGTAATCCGTATTTGTT (site CGATCGACTAA)”, the “recombinant UMI read abundance (log10)” value amounted to 0.00891.

As for “CGATCCACATGGACCGGTTTTCCCGGTAATCCGTATTTGTT (site CGATCTACTAA)”, the “recombinant UMI read abundance (log10)” value is 0.00733.

For “CGATCGTCATGGACCGGTTTTCCCGGTAATCCGTATTTGCC (site CGATCATCTAG)”, the “recombinant UMI read abundance (log10)” value stood at 0.

With “CGATCGTCATGGACCGGTTTTCCCGGTAATCCGTATTTGCC (site CGATCGTCTGG)”, the “recombinant UMI read abundance (log10)” value worked out at 1.05.

Turning to “CGATCTTCATGGACCGGTTTTCCCGGTAATCCGTATTTGCT (site CGATCATCTAG)”, the “recombinant UMI read abundance (log10)” value is 0.

“CGATCTTCATGGACCGGTTTTCCCGGTAATCCGTATTTGCT (site CGATCCTCTAG)”: the “recombinant UMI read abundance (log10)” value is 0.00985.

On to “CGATCTTCATGGACCGGTTTTCCCGGTAATCCGTATTTGCT (site CGATCGTCTAG)”, for which the “recombinant UMI read abundance (log10)” value came out at 0.00569.

Regarding “CGATCTTCATGGACCGGTTTTCCCGGTAATCCGTATTTGCT (site CGATCTTCTAG)”, the “recombinant UMI read abundance (log10)” value was found to be 0.601.

On to “CGATGTGCATGGACCGGTTTTCCCGGTAATCCGTATTTGGC (site CGATGTGCTGC)”, for which the “recombinant UMI read abundance (log10)” value stood at 3.02.

For the sequence “CGATGTTCATGGACCGGTTTTCCCGGTAATCCGTATTTGTC (site CGATGTTCTGA)”, the “recombinant UMI read abundance (log10)” value is 2.98.

On to “CGATTATCATGGACCGGTTTTCCCGGTAATCCGTATTTGCT (site CGATAATCTAG)”, for which the “recombinant UMI read abundance (log10)” value came to 0.446.

In the case of “CGATTATCATGGACCGGTTTTCCCGGTAATCCGTATTTGCT (site CGATCATCTAG)”, the “recombinant UMI read abundance (log10)” value worked out at 0.

For the sequence “CGATTATCATGGACCGGTTTTCCCGGTAATCCGTATTTGCT (site CGATGATCTAG)”, the “recombinant UMI read abundance (log10)” value amounted to 0.

Turning to “CGATTATCATGGACCGGTTTTCCCGGTAATCCGTATTTGCT (site CGATTATCTAG)”, the “recombinant UMI read abundance (log10)” value was 2.28.

In the case of “CGATTCCCATGGACCGGTTTTCCCGGTAATCCGTATTTGCT (site CAATTCCCTAG)”, the “recombinant UMI read abundance (log10)” value came out at 0.32.

On to “CGATTCCCATGGACCGGTTTTCCCGGTAATCCGTATTTGCT (site CCATTCCCTAG)”, for which the “recombinant UMI read abundance (log10)” value was found to be 1.03.

“CGATTCCCATGGACCGGTTTTCCCGGTAATCCGTATTTGCT (site CGATTCCCTAG)”: the “recombinant UMI read abundance (log10)” value came out at 0.704.

With “CGATTCCCATGGACCGGTTTTCCCGGTAATCCGTATTTGCT (site CTATTCCCTAG)”, the “recombinant UMI read abundance (log10)” value was found to be 0.

As for “CGATTGGCATGGACCGGTTTTCCCGGTAATCCGTATTTGAT (site CGATTGGCTAT)”, the “recombinant UMI read abundance (log10)” value turned out to be 2.26.

With “CGCAACACATGGACCGGTTTTCCCGGTAATCCGTATTTGCG (site CGCAACACTCG)”, the “recombinant UMI read abundance (log10)” value was determined as 1.19.

“CGCAACCCATGGACCGGTTTTCCCGGTAATCCGTATTTGTT (site CGCAACCCTAA)”: the “recombinant UMI read abundance (log10)” value is 0.717.

Turning to “CGCAACCCATGGACCGGTTTTCCCGGTAATCCGTATTTGTT (site CGGAATCCTAA)”, the “recombinant UMI read abundance (log10)” value amounted to 0.

For “CGCAATCCATGGACCGGTTTTCCCGGTAATCCGTATTTGGT (site CGCAATCCTAC)”, the “recombinant UMI read abundance (log10)” value was 0.135.

Regarding “CGCAATCCATGGACCGGTTTTCCCGGTAATCCGTATTTGGT (site CGGAATCCTAA)”, the “recombinant UMI read abundance (log10)” value is 0.

With “CGCACCGCATGGACCGGTTTTCCCGGTAATCCGTATTTGCA (site CGCACCGCTTG)”, the “recombinant UMI read abundance (log10)” value amounted to 2.35.
